Test results taken from PubChem BioAssay (NCI).
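Results reflect a 48-hour exposure of cells in 96-well plates to compound at five concentrations. GI50 is the concentration that inhibits growth by half. At the TGI there is no net growth.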

Experiments:
Experiment in all cases: NCI tumour cell line growth inhibition, 48 h
SK-MEL-28 melanoma = tested on: SK-MEL-28 melanoma
UACC-62 melanoma = tested on: UACC-62 melanoma
SF-539 CNS = tested on: SF-539 CNS
U251 CNS = tested on: U251 CNS
HT29 colon = tested on: HT29 colon
CAKI-1 renal = tested on: CAKI-1 renal
SK-MEL-2 melanoma = tested on: SK-MEL-2 melanoma
SW-620 colon = tested on: SW-620 colon
SNB-19 CNS = tested on: SNB-19 CNS
NCI-H460 lung = tested on: NCI-H460 lung
EKVX NSCLC = tested on: EKVX NSCLC
OVCAR-8 ovarian = tested on: OVCAR-8 ovarian
M14 melanoma = tested on: M14 melanoma
RPMI-8226 leukemia = tested on: RPMI-8226 leukemia
HCC-2998 colon = tested on: HCC-2998 colon
UO-31 renal = tested on: UO-31 renal
MOLT-4 leukemia = tested on: MOLT-4 leukemia
NCI-H522 lung = tested on: NCI-H522 lung
OVCAR-4 ovarian = tested on: OVCAR-4 ovarian
T-47D breast = tested on: T-47D breast
HS 578T breast = tested on: HS 578T breast
IGROV1 ovarian = tested on: IGROV1 ovarian
RXF 393 renal = tested on: RXF 393 renal
NCI/ADR-RES ovarian = tested on: NCI/ADR-RES ovarian
TK-10 renal = tested on: TK-10 renal
UACC-257 melanoma = tested on: UACC-257 melanoma
COLO 205 colon = tested on: COLO 205 colon
K-562 leukemia = tested on: K-562 leukemia
ACHN renal = tested on: ACHN renal
HL-60(TB) leukemia = tested on: HL-60(TB) leukemia
NCI-H23 lung = tested on: NCI-H23 lung
SF-268 CNS = tested on: SF-268 CNS
CCRF-CEM leukemia = tested on: CCRF-CEM leukemia
SNB-75 CNS = tested on: SNB-75 CNS
SN12C renal = tested on: SN12C renal
OVCAR-5 ovarian = tested on: OVCAR-5 ovarian
SK-MEL-5 melanoma = tested on: SK-MEL-5 melanoma
786-0 renal = tested on: 786-0 renal
A549 NSCLC = tested on: A549 NSCLC
HOP-92 NSCLC = tested on: HOP-92 NSCLC
SF-295 CNS = tested on: SF-295 CNS
HCT-116 colon = tested on: HCT-116 colon
SR leukemia = tested on: SR leukemia
NCI-H226 lung = tested on: NCI-H226 lung
OVCAR-3 ovarian = tested on: OVCAR-3 ovarian
LOX IMVI melanoma = tested on: LOX IMVI melanoma
SK-OV-3 ovarian = tested on: SK-OV-3 ovarian
HCT-15 colon = tested on: HCT-15 colon
MDA-MB-231 breast = tested on: MDA-MB-231 breast
MALME-3M melanoma = tested on: MALME-3M melanoma
DU-145 prostate = tested on: DU-145 prostate
BT-549 breast = tested on: BT-549 breast
PC-3 prostate = tested on: PC-3 prostate
MCF7 breast = tested on: MCF7 breast
HOP-62 NSCLC = tested on: HOP-62 NSCLC
KM12 colon = tested on: KM12 colon

Work on `COc1ccc(-c2nc3c(c(=O)n2C(C)=O)C(c2ccc(Cl)cc2)c2sc4c(Cl)cccc4c2O3)cc1` (configuration not stated) yielded a GI50 (SK-MEL-28 melanoma) of 1150 nM, a TGI (SK-MEL-28 melanoma) of 3390 nM and a GI50 (UACC-62 melanoma) of 298 nM. For the same molecule, the TGI (UACC-62 melanoma) was 1700 nM, the GI50 (SF-539 CNS) was 259 nM and the TGI (SF-539 CNS) was 840 nM. It also gave a GI50 (U251 CNS) of 483 nM, a TGI (U251 CNS) of 1760 nM and a GI50 (HT29 colon) of 325 nM. The TGI (HT29 colon) was 1090 nM, the GI50 (CAKI-1 renal) was 490 nM and the TGI (CAKI-1 renal) was 4160 nM. The GI50 (SK-MEL-2 melanoma) was 374 nM, the TGI (SK-MEL-2 melanoma) was 1690 nM and the GI50 (SW-620 colon) was 376 nM. For the same molecule, the TGI (SW-620 colon) was 1750 nM, the GI50 (SNB-19 CNS) was 413 nM and the TGI (SNB-19 CNS) was 2010 nM. It also gave a GI50 (NCI-H460 lung) of 365 nM, a TGI (NCI-H460 lung) of 1380 nM and a GI50 (EKVX NSCLC) of 710 nM. The TGI (EKVX NSCLC) was 4740 nM, the GI50 (OVCAR-8 ovarian) was 500 nM and the TGI (OVCAR-8 ovarian) was 2370 nM. The GI50 (M14 melanoma) was 239 nM, the TGI (M14 melanoma) was 973 nM and the GI50 (RPMI-8226 leukemia) was 529 nM. For the same molecule, the TGI (RPMI-8226 leukemia) was 5100 nM, the GI50 (HCC-2998 colon) was 680 nM and the TGI (HCC-2998 colon) was 2480 nM. The GI50 (UO-31 renal) was 329 nM, the TGI (UO-31 renal) was 2390 nM and the GI50 (MOLT-4 leukemia) was 386 nM. It also gave a TGI (MOLT-4 leukemia) of 2640 nM, a GI50 (NCI-H522 lung) of 259 nM and a TGI (NCI-H522 lung) of 1480 nM. For the same molecule, the GI50 (OVCAR-4 ovarian) was 845 nM, the TGI (OVCAR-4 ovarian) was 3660 nM and the GI50 (T-47D breast) was 326 nM. It also gave a TGI (T-47D breast) of 2200 nM, a GI50 (HS 578T breast) of 521 nM and a TGI (HS 578T breast) of 4440 nM. For the same molecule, the GI50 (IGROV1 ovarian) was 512 nM, the TGI (IGROV1 ovarian) was 3120 nM and the GI50 (RXF 393 renal) was 235 nM. The TGI (RXF 393 renal) was 675 nM, the GI50 (NCI/ADR-RES ovarian) was 187 nM and the TGI (NCI/ADR-RES ovarian) was 919 nM. It also gave a GI50 (TK-10 renal) of 846 nM, a TGI (TK-10 renal) of 2670 nM and a GI50 (UACC-257 melanoma) of 776 nM. The TGI (UACC-257 melanoma) was 3290 nM, the GI50 (COLO 205 colon) was 355 nM and the TGI (COLO 205 colon) was 1320 nM. The GI50 (K-562 leukemia) was 260 nM, the TGI (K-562 leukemia) was 2700 nM and the GI50 (ACHN renal) was 897 nM. The TGI (ACHN renal) was 4510 nM, the GI50 (HL-60(TB) leukemia) was 300 nM and the TGI (HL-60(TB) leukemia) was 982 nM. The GI50 (NCI-H23 lung) was 343 nM, the TGI (NCI-H23 lung) was 2090 nM and the GI50 (SF-268 CNS) was 680 nM. The TGI (SF-268 CNS) was 3820 nM, the GI50 (CCRF-CEM leukemia) was 462 nM and the TGI (CCRF-CEM leukemia) was 6280 nM. For the same molecule, the GI50 (SNB-75 CNS) was 738 nM, the TGI (SNB-75 CNS) was 9980 nM and the GI50 (SN12C renal) was 640 nM. The TGI (SN12C renal) was 2230 nM, the GI50 (OVCAR-5 ovarian) was 1200 nM and the TGI (OVCAR-5 ovarian) was 3400 nM. The GI50 (SK-MEL-5 melanoma) was 297 nM, the TGI (SK-MEL-5 melanoma) was 1110 nM and the GI50 (786-0 renal) was 430 nM. For the same molecule, the TGI (786-0 renal) was 1630 nM, the GI50 (A549 NSCLC) was 625 nM and the TGI (A549 NSCLC) was 2200 nM. For the same molecule, the GI50 (HOP-92 NSCLC) was 1330 nM, the TGI (HOP-92 NSCLC) was 4580 nM and the GI50 (SF-295 CNS) was 256 nM. For the same molecule, the TGI (SF-295 CNS) was 1270 nM, the GI50 (HCT-116 colon) was 341 nM and the TGI (HCT-116 colon) was 1380 nM. For the same molecule, the GI50 (SR leukemia) was 354 nM, the TGI (SR leukemia) was 5050 nM and the GI50 (NCI-H226 lung) was 329 nM. For the same molecule, the TGI (NCI-H226 lung) was 2240 nM, the GI50 (OVCAR-3 ovarian) was 383 nM and the TGI (OVCAR-3 ovarian) was 1850 nM. It also gave a GI50 (LOX IMVI melanoma) of 504 nM, a TGI (LOX IMVI melanoma) of 1840 nM and a GI50 (SK-OV-3 ovarian) of 349 nM. It also gave a TGI (SK-OV-3 ovarian) of 2090 nM, a GI50 (HCT-15 colon) of 301 nM and a TGI (HCT-15 colon) of 1660 nM. For the same molecule, the GI50 (MDA-MB-231 breast) was 589 nM, the TGI (MDA-MB-231 breast) was 2430 nM and the GI50 (MALME-3M melanoma) was 409 nM. The TGI (MALME-3M melanoma) was 2620 nM, the GI50 (DU-145 prostate) was 394 nM and the TGI (DU-145 prostate) was 1960 nM. The GI50 (BT-549 breast) was 355 nM, the TGI (BT-549 breast) was 2070 nM and the GI50 (PC-3 prostate) was 337 nM. For the same molecule, the TGI (PC-3 prostate) was 2390 nM, the GI50 (MCF7 breast) was 151 nM and the TGI (MCF7 breast) was 1370 nM. The GI50 (HOP-62 NSCLC) was 275 nM, the TGI (HOP-62 NSCLC) was 1960 nM and the GI50 (KM12 colon) was 349 nM. It also gave a TGI (KM12 colon) of 1910 nM.
